The results in this text go back to ChEMBL document CHEMBL3832079, “DailyMed|setid=c8806b45-493a-4373-bce7-736e97f9f876 | DIVALPROEX SODIUM - divalproex sodium tablet, delayed release|REMEDYREPACK INC”.

Values joined by “and” are separate entries in the source; they are usually repeats but may differ in a detail not shown here. Equal values may be shown once.

Data set [1] deals with Homo sapiens. In words: Evaluation of pharmacokinetic parameters for Valproic acid following oral administration of Divalproex Sodium. Type of data set: ADME, organism-based. The following applies: in vivo, dosed compound id 431, dosed compound name VALPROATE SALT, tissue Plasma.
For data set [2], the system named is Homo sapiens. Description: Evaluation of pharmacokinetic parameters for Valproic acid following single oral administration of Divalproex Sodium tablets or capsules. Type of data set: ADME, organism-based. The conditions noted are these: in vivo, dosed compound id 430, dosed compound name DIVALPROEX SODIUM, regimen Single dose, tissue Plasma.

As usually defined, the Tmax is the time from dosing to the highest level.

In the case of `CCCC(CCC)C(=O)O` [VALPROIC ACID], the CL in data set [1] (gender female) was found to be 4.7 L/hr/1.73 m2; in data set [1] (gender male), 4.8 L/hr/1.73 m2. Further, the t1/2 in data set [1] (gender male and female) was 12 h and 18 h; in data set [1], 10 to 67 h and 7 to 13 h; in data set [2] (dose 250 to 1000 mg) it was 9 to 16 h. The Tmax in data set [2] (dietary status Fasting) is 3.3 h and 4 h; in data set [2] (dietary status Fed), 4.8 h and 8 h.
